Experiment in all cases: relative viability (nuclei count vs DMSO), 5 days (fraction); higher = more cells survive
Compound in the assay “XMD13-2 + Tozasertib”: C1CC1C(=O)NC2=NNC3=C2C=CC(=C3)C4=CC(=CC=C4)C(=O)NC5CC5 [XMD13-2] + Cc1cc(Nc2cc(N3CCN(C)CC3)nc(Sc3ccc(NC(=O)C4CC4)cc3)n2)n[nH]1 [Tozasertib] (partner 0.1 µM)
A digest of the protocol: (§1)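 Five library-drug doses in √10 steps were combined with a fixed anchor-drug dose, or a single drug was given alone, by pin tool to lung cancer cell lines in 1536-well plates the day after seeding. Nuclei were stained and counted after 5 days. Relative viability is the nuclei count in treated wells over that in vehicle wells, taken as the median of duplicate plates.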

Compound in the assay “ALW-II-49-7 + Phenformin”: Cc1ccc(C(=O)Nc2cccc(C(F)(F)F)c2)cc1Nc1cncc(C(N)=O)c1 [ALW-II-49-7] + N=C(N)NC(=N)NCCc1ccccc1 [Phenformin] (partner 250 µM)
In outline:
as §1

Compound in the assay “ALW-II-49-7 + Crizotinib”: Cc1ccc(C(=O)Nc2cccc(C(F)(F)F)c2)cc1Nc1cncc(C(N)=O)c1 [ALW-II-49-7] + C[C@@H](Oc1cc(-c2cnn(C3CCNCC3)c2)cnc1N)c1c(Cl)ccc(F)c1Cl [Crizotinib] (partner 1 µM)
In outline: as §1

Compound in assay [1]: Cc1ccc(C(=O)Nc2cccc(C(F)(F)F)c2)cc1Nc1cncc(C(N)=O)c1 [ALW-II-49-7] + CC(=O)c1c(C)c2cnc(Nc3ccc(N4CCNCC4)cn3)nc2n(C2CCCC2)c1=O [Palbociclib] (partner 0.5 µM)
In outline: as §1

Drawing on the supplement of paper PMC10307832, this text covers relative viability for one cell line.

In the case of UMC-11, the relative viability with XMD13-2 + Tozasertib (first compound 0.05 µM) came out at 0.188; with XMD13-2 + Tozasertib (first compound 0.1581 µM), 0.197; with XMD13-2 + Tozasertib (first compound 0.5 µM), 0.197; with XMD13-2 + Tozasertib (first compound 1.581 µM), 0.204; in the assay with XMD13-2 + Tozasertib (first compound 5 µM) it was 0.192; with ALW-II-49-7 + Phenformin (first compound 0.08 µM), 0.347. Moreover, the relative viability in the assay with ALW-II-49-7 + Phenformin (first compound 0.253 µM) came out at 0.372; with ALW-II-49-7 + Phenformin (first compound 0.8 µM) it was 0.352; with ALW-II-49-7 + Phenformin (first compound 2.53 µM), 0.304; with ALW-II-49-7 + Phenformin (first compound 8 µM) it was 0.268; with ALW-II-49-7 + Crizotinib (first compound 0.08 µM), 0.531; in the assay with ALW-II-49-7 + Crizotinib (first compound 0.253 µM) it was 0.613. The relative viability in the assay with ALW-II-49-7 + Crizotinib (first compound 2.53 µM) worked out at 0.755; in the assay with ALW-II-49-7 + Crizotinib (first compound 8 µM), 0.553; in assay [1] (first compound 0.08 µM) it was 0.345; in assay [1] (first compound 0.253 µM) it was 0.348; in assay [1] (first compound 0.8 µM), 0.33; in assay [1] (first compound 2.53 µM), 0.295. In assay [1] (first compound 8 µM), the relative viability came out at 0.274.
